According to US9113629B2, “4-amino-6-(4-substituted-phenyl)-picolinates and 6-amino-2-(4-substituted-phenyl)-pyrimidine-4-carboxylates and their use as herbicides” (DOW AGROSCIENCES LLC, priority 2013, dated 2015):

Columns and labels:
Experiment in all cases: Post-emergent Test III, herbicidal activity in wheat and barley
Assay type in all cases: in vivo
[1] = test system: HORSS: barley, including spring and winter (Hordeum vulgare); settings: 21 days after application; for GR20 HORSS: probit analysis, dose for 20 percent growth reduction (crop); for pest or weed control at 35 g/ha: 35 g ai/ha; for pest or weed control at 70 g/ha: 70 g ai/ha
Outline: (§1)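 Plants at the second to third true-leaf stage, grown in a greenhouse at about 18/17 °C with a 14 h photoperiod, were sprayed post-emergence at 187 L/ha with the high rate and ½× to 1/16× serial dilutions in an acetone/DMSO/crop-oil/surfactant carrier. Injury was rated visually at 21 d on a 0–100% scale, and GR20–GR90 were derived by probit analysis.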

[2] = test system: KCHSC: kochia (Kochia scoparia); settings: 21 days after application; for GR50 KCHSC / GR80 KCHSC: probit analysis; for GR50 KCHSC: dose for 50 percent growth reduction; for GR80 KCHSC: dose for 80 percent growth reduction; for pest or weed control at 35 g/ha: 35 g ai/ha; for pest or weed control at 70 g/ha: 70 g ai/ha
Outline: as §1

[3] = test system: MATSS: scented mayweed (Matricaria chamomilla), pineappleweed (Matricaria matricarioides); settings: 21 days after application; for GR50 MATSS / GR80 MATSS: probit analysis; for GR50 MATSS: dose for 50 percent growth reduction; for GR80 MATSS: dose for 80 percent growth reduction; for pest or weed control at 35 g/ha: 35 g ai/ha; for pest or weed control at 70 g/ha: 70 g ai/ha
Outline: as §1

[4] = test system: SASKR: Russian thistle (Salsola iberica); settings: 21 days after application; for GR50 SASKR / GR80 SASKR: probit analysis; for GR50 SASKR: dose for 50 percent growth reduction; for GR80 SASKR: dose for 80 percent growth reduction; for pest or weed control at 35 g/ha: 35 g ai/ha; for pest or weed control at 70 g/ha: 70 g ai/ha
Outline: as §1

[5] = test system: TRZSS: wheat, including spring and winter (Triticum aestivum); settings: 21 days after application; for GR20 TRZSS: probit analysis, dose for 20 percent growth reduction (crop); for pest or weed control at 35 g/ha: 35 g ai/ha; for pest or weed control at 70 g/ha: 70 g ai/ha
Outline: as §1

[6] = test system: VERPE: bird's-eye speedwell (veronica persica); settings: 21 days after application; for GR50 VERPE / GR80 VERPE: probit analysis; for GR50 VERPE: dose for 50 percent growth reduction; for GR80 VERPE: dose for 80 percent growth reduction; for pest or weed control at 35 g/ha: 35 g ai/ha; for pest or weed control at 70 g/ha: 70 g ai/ha
Outline: as §1

[7] = test system: VIOSS: wild pansy (Viola tricolor), field violet (Viola arvensis); settings: 21 days after application; for GR50 VIOSS / GR80 VIOSS: probit analysis; for GR50 VIOSS: dose for 50 percent growth reduction; for GR80 VIOSS: dose for 80 percent growth reduction; for pest or weed control at 35 g/ha: 35 g ai/ha; for pest or weed control at 70 g/ha: 70 g ai/ha
Outline: as §1

[8] = Hordeum vulgare, post-emergence, 504 h, read-out: Visual Gorowth Reduction (%) 21 days After Application HORSS
[9] = Bassia scoparia, post-emergence, 504 h, read-out: Visual Gorowth Reduction (%) 21 days After Application KCHSC
[10] = Matricaria chamomilla, post-emergence, 504 h, read-out: Visual Gorowth Reduction (%) 21 days After Application MATSS
[11] = Salsola tragus, post-emergence, 504 h, read-out: Visual Gorowth Reduction (%) 21 days After Application SASKR
[12] = Triticum aestivum, post-emergence, 504 h, read-out: Visual Gorowth Reduction (%) 21 days After Application TRZSS
[13] = Veronica persica, post-emergence, 504 h, read-out: Visual Gorowth Reduction (%) 21 days After Application VERPE
[14] = Viola tricolor, post-emergence, 504 h, read-out: Visual Gorowth Reduction (%) 21 days After Application VIOSS

## Nc1c(F)c(-c2ccc(I)cc2F)nc(C(=O)O)c1Cl [Compound 169]
[1]; Hordeum vulgare, post-emergence, 504 h, 37.1 g ai/ha, read-out: Visual Gorowth Reduction (%) 21 days After Application HORSS
  pest or weed control at 37.1 g/ha: 95 to 100%
[1]; Hordeum vulgare, post-emergence, 504 h, 74.3 g ai/ha, read-out: Visual Gorowth Reduction (%) 21 days After Application HORSS
  pest or weed control at 74.3 g/ha: 95 to 100%
[1]; Hordeum vulgare, post-emergence, 504 h, 149 g ai/ha, read-out: Visual Gorowth Reduction (%) 21 days After Application HORSS
  pest or weed control at 149 g/ha: 95 to 100%
[1]
  GR20 HORSS: 1 g ai/ha
[2]; Bassia scoparia, post-emergence, 504 h, 37.1 g ai/ha, read-out: Visual Gorowth Reduction (%) 21 days After Application KCHSC
  pest or weed control at 37.1 g/ha: 60 to 74%
[2]; Bassia scoparia, post-emergence, 504 h, 74.3 g ai/ha, read-out: Visual Gorowth Reduction (%) 21 days After Application KCHSC
  pest or weed control at 74.3 g/ha: 85 to 94%
[2]; Bassia scoparia, post-emergence, 504 h, 149 g ai/ha, read-out: Visual Gorowth Reduction (%) 21 days After Application KCHSC
  pest or weed control at 149 g/ha: 85 to 94%
[2]
  GR50 KCHSC: 8 g ai/ha
  GR80 KCHSC: 72 g ai/ha
[3]; Matricaria chamomilla, post-emergence, 504 h, 37.1 g ai/ha, read-out: Visual Gorowth Reduction (%) 21 days After Application MATSS
  pest or weed control at 37.1 g/ha: 75 to 84%
[3]; Matricaria chamomilla, post-emergence, 504 h, 74.3 g ai/ha, read-out: Visual Gorowth Reduction (%) 21 days After Application MATSS
  pest or weed control at 74.3 g/ha: 95 to 100%
[3]; Matricaria chamomilla, post-emergence, 504 h, 149 g ai/ha, read-out: Visual Gorowth Reduction (%) 21 days After Application MATSS
  pest or weed control at 149 g/ha: 95 to 100%
[3]
  GR50 MATSS: 15 g ai/ha
  GR80 MATSS: 35 g ai/ha
[4]; Salsola tragus, post-emergence, 504 h, 37.1 g ai/ha, read-out: Visual Gorowth Reduction (%) 21 days After Application SASKR
  pest or weed control at 37.1 g/ha: 60 to 74%
[4]; Salsola tragus, post-emergence, 504 h, 74.3 g ai/ha, read-out: Visual Gorowth Reduction (%) 21 days After Application SASKR
  pest or weed control at 74.3 g/ha: 75 to 84%
[4]; Salsola tragus, post-emergence, 504 h, 149 g ai/ha, read-out: Visual Gorowth Reduction (%) 21 days After Application SASKR
  pest or weed control at 149 g/ha: 85 to 94%
[4]
  GR50 SASKR: 5 g ai/ha
  GR80 SASKR: 83 g ai/ha
[5]; Triticum aestivum, post-emergence, 504 h, 37.1 g ai/ha, read-out: Visual Gorowth Reduction (%) 21 days After Application TRZSS
  pest or weed control at 37.1 g/ha: 75 to 84%
[5]; Triticum aestivum, post-emergence, 504 h, 74.3 g ai/ha, read-out: Visual Gorowth Reduction (%) 21 days After Application TRZSS
  pest or weed control at 74.3 g/ha: 85 to 94%
[5]; Triticum aestivum, post-emergence, 504 h, 149 g ai/ha, read-out: Visual Gorowth Reduction (%) 21 days After Application TRZSS
  pest or weed control at 149 g/ha: 85 to 94%
[5]
  GR20 TRZSS: 1 g ai/ha
[6]; Veronica persica, post-emergence, 504 h, 37.1 g ai/ha, read-out: Visual Gorowth Reduction (%) 21 days After Application VERPE
  pest or weed control at 37.1 g/ha: 85 to 94%
[6]; Veronica persica, post-emergence, 504 h, 74.3 g ai/ha, read-out: Visual Gorowth Reduction (%) 21 days After Application VERPE
  pest or weed control at 74.3 g/ha: 95 to 100%
[6]; Veronica persica, post-emergence, 504 h, 149 g ai/ha, read-out: Visual Gorowth Reduction (%) 21 days After Application VERPE
  pest or weed control at 149 g/ha: 95 to 100%
[6]
  GR50 VERPE: 19 g ai/ha
  GR80 VERPE: 37 g ai/ha
[7]; Viola tricolor, post-emergence, 504 h, 37.1 g ai/ha, read-out: Visual Gorowth Reduction (%) 21 days After Application VIOSS
  pest or weed control at 37.1 g/ha: 75 to 84%
[7]; Viola tricolor, post-emergence, 504 h, 74.3 g ai/ha, read-out: Visual Gorowth Reduction (%) 21 days After Application VIOSS
  pest or weed control at 74.3 g/ha: 95 to 100%
[7]; Viola tricolor, post-emergence, 504 h, 149 g ai/ha, read-out: Visual Gorowth Reduction (%) 21 days After Application VIOSS
  pest or weed control at 149 g/ha: 95 to 100%
[7]
  GR50 VIOSS: 21 g ai/ha
  GR80 VIOSS: 36 g ai/ha

## COC(=O)c1nc(-c2ccc(I)c(F)c2F)cc(N)c1Cl [Compound 129, Methyl 4-amino-3-chloro-6-(2,3-difluoro-4-iodophenyl)picolinate]
[1]; [8]
  pest or weed control at 35 g/ha: 85 to 94%
  pest or weed control at 70 g/ha: 85 to 94%
[1]
  GR20 HORSS: 1 g ai/ha
[2]; [9]
  pest or weed control at 35 g/ha: 85 to 94%
  pest or weed control at 70 g/ha: 95 to 100%
[2]
  GR50 KCHSC: 7 g ai/ha
  GR80 KCHSC: 21 g ai/ha
[3]; [10]
  pest or weed control at 35 g/ha: 0 to 29%
  pest or weed control at 70 g/ha: 30 to 44%
[3]
  GR50 MATSS: 89 g ai/ha
  GR80 MATSS: 131 g ai/ha
[4]; [11]
  pest or weed control at 35 g/ha: 75 to 84%
  pest or weed control at 70 g/ha: 85 to 94%
[4]
  GR50 SASKR: 6 g ai/ha
  GR80 SASKR: 41 g ai/ha
[5]; [12]
  pest or weed control at 35 g/ha: 75 to 84%
  pest or weed control at 70 g/ha: 85 to 94%
[5]
  GR20 TRZSS: 1 g ai/ha
[6]; [13]
  pest or weed control at 35 g/ha: 30 to 44%
  pest or weed control at 70 g/ha: 45 to 59%
[6]
  GR50 VERPE: 92 g ai/ha
  GR80 VERPE: >140 g ai/ha
[7]; [14]
  pest or weed control at 35 g/ha: 75 to 84%
  pest or weed control at 70 g/ha: 95 to 100%
[7]
  GR50 VIOSS: 17 g ai/ha
  GR80 VIOSS: 34 g ai/ha

## C#Cc1ccc(-c2nc(C(=O)O)c(Cl)c(N)c2F)c(F)c1 [Compound 108]
[1]; [8]
  pest or weed control at 35 g/ha: 30 to 44%
  pest or weed control at 70 g/ha: 45 to 59%
[1]
  GR20 HORSS: 16 g ai/ha
[2]; [9]
  pest or weed control at 35 g/ha: 0 to 29%
  pest or weed control at 70 g/ha: 0 to 29%
[2]
  GR50 KCHSC: >140 g ai/ha
  GR80 KCHSC: >140 g ai/ha
[3]; [10]
  pest or weed control at 35 g/ha: 30 to 44%
  pest or weed control at 70 g/ha: 60 to 74%
[3]
  GR50 MATSS: 58 g ai/ha
  GR80 MATSS: >140 g ai/ha
[4]; [11]
  pest or weed control at 35 g/ha: 0 to 29%
  pest or weed control at 70 g/ha: 30 to 44%
[4]
  GR50 SASKR: 136 g ai/ha
  GR80 SASKR: >140 g ai/ha
[5]; [12]
  pest or weed control at 35 g/ha: 75 to 84%
  pest or weed control at 70 g/ha: 75 to 84%
[5]
  GR20 TRZSS: 6 g ai/ha
[6]; [13]
  pest or weed control at 35 g/ha: 60 to 74%
  pest or weed control at 70 g/ha: 75 to 84%
[6]
  GR50 VERPE: 22 g ai/ha
  GR80 VERPE: 67 g ai/ha
[7]; [14]
  pest or weed control at 35 g/ha: 30 to 44%
  pest or weed control at 70 g/ha: 30 to 44%
[7]
  GR50 VIOSS: 85 g ai/ha
  GR80 VIOSS: >140 g ai/ha

## Nc1cc(-c2ccc(I)c(F)c2F)nc(C(=O)O)c1Cl [Compound 38]
[1]; [8]
  pest or weed control at 35 g/ha: 85 to 94%
  pest or weed control at 70 g/ha: 85 to 94%
[1]
  GR20 HORSS: 1 g ai/ha
[2]; [9]
  pest or weed control at 35 g/ha: 85 to 94%
  pest or weed control at 70 g/ha: 85 to 94%
[2]
  GR50 KCHSC: 1 g ai/ha
  GR80 KCHSC: 24 g ai/ha
[3]; [10]
  pest or weed control at 35 g/ha: 60 to 74%
  pest or weed control at 70 g/ha: 85 to 94%
[3]
  GR50 MATSS: 21 g ai/ha
  GR80 MATSS: 56 g ai/ha
[4]; [11]
  pest or weed control at 35 g/ha: 60 to 74%
  pest or weed control at 70 g/ha: 60 to 74%
[4]
  GR50 SASKR: 17 g ai/ha
  GR80 SASKR: 68 g ai/ha
[5]; [12]
  pest or weed control at 35 g/ha: 85 to 94%
  pest or weed control at 70 g/ha: 85 to 94%
[5]
  GR20 TRZSS: 1 g ai/ha
[6]; [13]
  pest or weed control at 35 g/ha: 30 to 44%
  pest or weed control at 70 g/ha: 60 to 74%
[6]
  GR50 VERPE: 42 g ai/ha
  GR80 VERPE: 112 g ai/ha
[7]; [14]
  pest or weed control at 35 g/ha: 95 to 100%
  pest or weed control at 70 g/ha: 95 to 100%
[7]
  GR50 VIOSS: 13 g ai/ha
  GR80 VIOSS: 26 g ai/ha
